Holding throughout (test): biochemical
Holding throughout (type): binding

One test deals with T1, DRB4*0101 (Homo sapiens, UniProt P01903+P13762, G164S).
T1 construct: made in house; host or cells: EBV-transformed homozygous human B cell lines, transfected fibroblasts or single-allele 721.221 transfectants

A further test concerns the target T2, DRB1*0301 (Homo sapiens, UniProt P01903+P01911, A100K/A102G/A103R/A169T/F55Y/I96L/K41T/L162R/M171V/P40S/Q125H/Q178H/Q39Y/R42S/S66N/T106N/T262R/W38E/Y61H).
T2 construct: made in house; host or cells: EBV-transformed homozygous human B cell lines, transfected fibroblasts or single-allele 721.221 transfectants

A further test has as its target T3, DRB1*1501 (Homo sapiens, UniProt P01903+P01911).
T3 construct: made in house; host or cells: EBV-transformed homozygous human B cell lines, transfected fibroblasts or single-allele 721.221 transfectants
The note with it: read-out: IC50 nM to purified HLA DRB1*1501.

For the next test, the target named is T4, DRB1*0101 (Homo sapiens, UniProt P01903+P01911, A100R/D57E/F55L/F60I/F76Y/I96L/L162R/M171V/P40L/Q125E/R42F/V115G/Y59C).
T4 construct: made in house; host or cells: EBV-transformed homozygous human B cell lines, transfected fibroblasts or single-allele 721.221 transfectants

The target in a further test is DRB1*1302 (Homo sapiens, UniProt P01903+P01911, A100E/A169T/K41T/L162R/M171V/P40S/Q125H/Q178H/Q39Y/Q99D/R42S/S66N/T262R/V115G/W38E/Y61H). The note with it: read-out: IC50 nM to purified HLA DRB1*1302.
In another test the target is T5, DRB1*0401 (Homo sapiens, UniProt P01903+P01911, A100K/A169T/F76Y/I96L/K127E/L162R/M171V/N62H/P40V/Q125Y/R42H/S133A/S149N/S66Y/V115G/V209L/W38E).
T5 construct: made in house; host or cells: EBV-transformed homozygous human B cell lines, transfected fibroblasts or single-allele 721.221 transfectants
The note with it: read-out: IC50 nM to purified HLA DRB1*0401.

The mark [1] stands for this setting: IC50 nM to purified HLA DRB4*0101.
Setting [2] is: IC50 nM to purified HLA DRB1*0101.
Setting [3] is: IC50 nM to purified HLA DRB4*0101, Table 4.
Where [4] appears, read: IC50 nM to purified HLA DRB1*0101, Table 4.

The record followed here is patent publication US9511134B2, “Inducing immune responses to influenza virus using polypeptide and nucleic acid compositions” (priority 2006, dated 2016).

Like-named read-outs stand apart in the source and are kept apart here. Where no end group is shown, it is not given here.

Sequence of DRB1*1302 (P01903 26-254 limits assumed, other chains not shown): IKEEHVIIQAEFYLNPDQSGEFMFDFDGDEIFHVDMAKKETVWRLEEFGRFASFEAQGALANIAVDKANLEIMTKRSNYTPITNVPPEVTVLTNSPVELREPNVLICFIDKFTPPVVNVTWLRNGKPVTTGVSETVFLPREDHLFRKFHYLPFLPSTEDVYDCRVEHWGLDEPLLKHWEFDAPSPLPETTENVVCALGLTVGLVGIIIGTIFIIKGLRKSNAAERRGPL
T2 sequence (P01903 26-254, other chains not shown): as the sequence (P01903 26-254 limits assumed, other chains not shown) above

Broadly, the IC50 is the concentration at which inhibition is half-maximal. With `CC[C@H](C)[C@H](NC(=O)[C@H](CS)NC(=O)[C@@H](NC(=O)[C@H](CCC(N)=O)NC(=O)[C@H](CC(=O)O)NC(=O)[C@H](CO)NC(=O)[C@H](CCCCN)NC(=O)[C@@H](NC(=O)[C@H](CC(C)C)NC(=O)[C@H](CO)NC(=O)[C@@H](N)C(C)C)C(C)C)[C@@H](C)CC)C(=O)NCC(=O)N[C@@H](Cc1ccc(O)cc1)C(=O)N[C@@H](Cc1c[nH]cn1)C(=O)N[C@@H](C)C(=O)O` [Flu.HA.11], the values for the IC50 against DRB4*0101 (setting [1]), against DRB1*0301 and on DRB1*1501 were 32 nM, 511 nM and 14500 nM, respectively.

For `CC[C@H](C)[C@H](NC(=O)[C@H](CC(C)C)NC(=O)[C@H](Cc1c[nH]c2ccccc12)NC(=O)[C@@H](NC(=O)[C@@H](N)C(C)C)C(C)C)C(=O)N[C@@H](CCCCN)C(=O)N[C@@H](CCCCN)C(=O)N[C@@H](CC(N)=O)C(=O)N[C@@H](CO)C(=O)N[C@H](C(=O)N[C@@H](Cc1ccc(O)cc1)C(=O)N1CCC[C@H]1C(=O)N[C@H](C(=O)N[C@H](C(=O)N[C@@H](CCCCN)C(=O)N[C@@H](CCCNC(=N)N)C(=O)O)[C@@H](C)CC)[C@@H](C)O)[C@@H](C)O` [Flu.HA.163], the IC50 is 1660 nM on DRB4*0101 (setting [1]), 464 nM at DRB1*0101 (setting [2]), 99 nM at DRB1*1501 and 14 nM at DRB1*1302.

Consider `CC(C)C[C@H](NC(=O)CNC(=O)[C@@H](NC(=O)[C@H](C)NC(=O)[C@H](CC(C)C)NC(=O)[C@@H](NC(=O)[C@H](CC(C)C)NC(=O)[C@H](CCCNC(=N)N)NC(=O)[C@H](CC(N)=O)NC(=O)[C@H](CO)NC(=O)[C@H](CCCCN)NC(=O)[C@@H](NC(=O)[C@H](Cc1ccc(O)cc1)NC(=O)[C@H](CCCCN)NC(=O)[C@@H]1CCCN1C(=O)[C@@H](N)CS)C(C)C)C(C)C)[C@@H](C)O)C(=O)O` [Flu.HA.318], for which the IC50 amounted to 287 nM against DRB4*0101 (setting [1]); 868 nM on DRB1*0401; 2920 nM at DRB1*0301; 2760 nM against DRB1*0101 (setting [2]); 230 nM on DRB1*1501; 48 nM on DRB1*1302.

For the compound `CC[C@H](C)[C@H](N)C(=O)N[C@@H](Cc1ccc(O)cc1)C(=O)N[C@@H](CCC(N)=O)C(=O)N[C@H](C(=O)N[C@@H](CC(C)C)C(=O)N[C@@H](CO)C(=O)N[C@H](C(=O)N[C@@H](Cc1ccc(O)cc1)C(=O)N[C@@H](CO)C(=O)N[C@H](C(=O)N[C@H](C(=O)N[C@@H](C)C(=O)N[C@@H](CO)C(=O)N[C@@H](CO)C(=O)N[C@@H](CC(C)C)C(=O)N[C@@H](C)C(=O)O)C(C)C)[C@@H](C)O)[C@@H](C)CC)[C@@H](C)CC` [Flu.HA.529], the IC50 against DRB4*0101 (setting [1]) amounted to 18 nM; on DRB4*0101 (setting [3]) it was 18 nM; on DRB1*0401 (Table 4) it was 89 nM; on DRB1*0401, 89 nM; against DRB1*0101 (setting [2]), 55 nM; on DRB1*0101 (setting [4]), 55 nM. In addition, the IC50 is 4.7 nM on DRB1*1501 (Table 4), 4.7 nM on DRB1*1501 and 13 nM at DRB1*1302.

Turning to `CC[C@H](C)[C@H](N)C(=O)N[C@@H](CC(C)C)C(=O)N[C@@H](CO)C(=O)N[C@H](C(=O)N[C@@H](Cc1ccc(O)cc1)C(=O)N[C@@H](CO)C(=O)N[C@H](C(=O)N[C@H](C(=O)N[C@@H](C)C(=O)N[C@@H](CO)C(=O)N[C@@H](CO)C(=O)N[C@@H](CC(C)C)C(=O)N[C@@H](C)C(=O)N[C@@H](CC(C)C)C(=O)N[C@@H](C)C(=O)N[C@H](C(=O)O)[C@@H](C)CC)C(C)C)[C@@H](C)O)[C@@H](C)CC` [Flu.HA.532], the IC50 was determined as 824 nM against DRB4*0101 (setting [1]); 824 nM against DRB4*0101 (setting [3]); 91 nM on DRB1*0401 (Table 4); 91 nM on DRB1*0401; 11 nM against DRB1*0101 (setting [2]); 11 nM against DRB1*0101 (setting [4]). Besides, the half-maximal inhibitory concentration (IC50) is 20 nM on DRB1*1501 (Table 4), 20 nM on DRB1*1501 and 7.6 nM on DRB1*1302.

As to `CC[C@H](C)[C@H](NC(=O)[C@@H]1CCCN1C(=O)[C@H](CCCNC(=N)N)NC(=O)[C@@H](NC(=O)[C@H](CCCCN)NC(=O)[C@H](CC(C)C)NC(=O)[C@H](Cc1c[nH]c2ccccc12)NC(=O)[C@H](CCC(=O)O)NC(=O)[C@H](CCSC)NC(=O)[C@H](CC(C)C)NC(=O)[C@H](C)NC(=O)[C@@H](N)CCC(=O)O)[C@@H](C)O)C(=O)N[C@@H](CC(C)C)C(=O)N[C@@H](CO)C(=O)N1CCC[C@H]1C(=O)O` [Flu.M1.43], the 50% inhibitory concentration (IC50) is 5510 nM against DRB4*0101 (setting [1]), 9.5 nM against DRB1*0101 (setting [2]), 18 nM on DRB1*1501 and 380 nM at DRB1*1302.

On to `CC[C@H](C)[C@H](NC(=O)[C@H](CCCNC(=N)N)NC(=O)[C@@H](NC(=O)[C@H](CO)NC(=O)[C@H](CC(N)=O)NC(=O)[C@H](CC(=O)O)NC(=O)[C@H](CCCCN)NC(=O)[C@H](CO)NC(=O)[C@H](Cc1ccc(O)cc1)NC(=O)[C@@H](NC(=O)[C@H](C)NC(=O)[C@@H](N)Cc1c[nH]c2ccccc12)C(C)C)[C@@H](C)CC)C(=O)NCC(=O)N[C@@H](CO)C(=O)N[C@@H](CCCCN)C(=O)O` [Flu.NA.77], for which the IC50 at DRB4*0101 (setting [1]) was 19500 nM; at DRB1*0401 it was 1600 nM; on DRB1*0101 (setting [2]), 5400 nM; on DRB1*1501, 642 nM; on DRB1*1302, 36 nM.

Turning to `CSCC[C@H](NC(=O)[C@H](CC(C)C)NC(=O)[C@@H](NC(=O)[C@H](CCCNC(=N)N)NC(=O)[C@H](Cc1c[nH]cn1)NC(=O)[C@@H]1CCCN1C(=O)[C@H](CO)NC(=O)[C@H](CCCNC(=N)N)NC(=O)[C@H](CC(=O)O)NC(=O)[C@H](CCCCN)NC(=O)[C@@H](NC(=O)[C@@H](NC(=O)CNC(=O)[C@@H](N)CC(N)=O)[C@@H](C)O)C(C)C)[C@@H](C)O)C(=O)N[C@@H](CO)C(=O)O` [Flu.NA.126], the IC50 against DRB4*0101 (setting [1]) was determined as 8880 nM; on DRB1*0401, 17900 nM; against DRB1*0101 (setting [2]), 581 nM; at DRB1*1302, 7930 nM.

As for `CC[C@H](C)[C@H](NC(=O)[C@H](CCC(N)=O)NC(=O)[C@H](Cc1ccc(O)cc1)NC(=O)[C@H](CCC(=O)O)NC(=O)[C@H](CC(C)C)NC(=O)[C@@H](N)CC(N)=O)C(=O)NCC(=O)N[C@@H](Cc1ccc(O)cc1)C(=O)N[C@H](C(=O)N[C@@H](CS)C(=O)N[C@@H](CO)C(=O)NCC(=O)N[C@H](C(=O)N[C@@H](Cc1ccccc1)C(=O)NCC(=O)O)C(C)C)[C@@H](C)CC` [Flu.NA.289], the IC50 on DRB4*0101 (setting [1]) was found to be 354 nM; on DRB1*0401 it was 975 nM; against DRB1*0101 (setting [2]) it was 1130 nM; at DRB1*1501 it was 13 nM; on DRB1*1302, 41 nM.

On to `CC[C@H](C)[C@H](NC(=O)[C@H](CO)NC(=O)[C@H](CC(N)=O)NC(=O)[C@@H](N)CCC(N)=O)C(=O)N[C@H](C(=O)N[C@H](C(=O)N[C@@H](CCC(=O)O)C(=O)N[C@@H](CCCNC(=N)N)C(=O)N[C@@H](CCSC)C(=O)N[C@H](C(=O)N[C@@H](CC(C)C)C(=O)N[C@@H](CO)C(=O)N[C@@H](C)C(=O)N[C@@H](Cc1ccccc1)C(=O)N[C@@H](CC(=O)O)C(=O)O)C(C)C)[C@@H](C)CC)[C@@H](C)O` [Flu.NP.61], for which the IC50 at DRB4*0101 (read-out: IC50 nM to purified HLA DRB4*0101) was determined as 39 nM; on DRB1*0401, 430 nM; at DRB1*1501 (Table 4) it was 1200 nM; on DRB1*1501, 1200 nM.

As to `CC[C@H](C)[C@H](NC(=O)[C@@H](N)CC(=O)O)C(=O)N[C@@H](CC(C)C)C(=O)N[C@@H](CCSC)C(=O)N[C@@H](CCCNC(=N)N)C(=O)N[C@@H](CCSC)C(=O)N[C@@H](CO)C(=O)N[C@@H](CCCCN)C(=O)N[C@@H](CCSC)C(=O)N[C@@H](CCC(N)=O)C(=O)N[C@@H](CC(C)C)C(=O)NCC(=O)N[C@@H](CO)C(=O)N[C@@H](CO)C(=O)N[C@@H](CO)C(=O)O` [Flu.NS2.87], the IC50 against DRB4*0101 (setting [1]) turned out to be 11 nM; on DRB1*0401 it was 717 nM; on DRB1*0101 (setting [2]), 2140 nM; at DRB1*1501, 748 nM; on DRB1*1302, 423 nM.

For the compound `CSCC[C@H](NC(=O)[C@H](CCCNC(=N)N)NC(=O)[C@H](CCSC)NC(=O)[C@@H](N)C(C)C)C(=O)NCC(=O)N[C@@H](CC(=O)O)C(=O)N[C@@H](CC(C)C)C(=O)N[C@@H](Cc1c[nH]cn1)C(=O)N[C@@H](CO)C(=O)N[C@@H](CC(C)C)C(=O)N[C@@H](CCC(N)=O)C(=O)N[C@@H](CC(N)=O)C(=O)N[C@@H](CCCNC(=N)N)C(=O)N[C@@H](CC(N)=O)C(=O)NCC(=O)O` [Flu.NS2.125], the IC50 at DRB4*0101 (setting [1]) was found to be 8820 nM; at DRB1*0401 it was 448 nM; on DRB1*0101 (setting [2]) it was 249 nM; at DRB1*1501, 372 nM; on DRB1*1302 it was 1370 nM.

Turning to ISGVKLESIGIYQILSI [Flu.HA.519], the IC50 against DRB4*0101 (setting [1]) stood at 16 nM; at DRB1*0401 it was 3110 nM; at DRB1*1501, 9.2 nM; at DRB1*1302 it was 408 nM.
